Patent US10508285B2, “Method for screening of genes conferring increased tolerance to herbicides” (priority 2014, dated 2019)

System: Protoporphyrinogen IX Oxidase (PPO) R128L
Format: cell-based, Amaranthus tuberculatus

SMILES	Tolerance factor
C#CCN1C(=O)C(F)(F)Oc2cc(F)c(-n3c(=O)n(C)c(=S)n(C)c3=O)cc21 [BAS 850H]	28.7
CC(C)N(C)S(=O)(=O)NC(=O)c1cc(-n2c(=O)cc(C(F)(F)F)n(C)c2=O)c(F)cc1Cl [Saflufenacil]	170
